How the values were obtained:
adult Aedes aegypti = experiment: cage-in-arm test, complete protection time (CPT); type: in vivo; conditions: 4 mg
Procedure: For determining the repellency of prepared samples against adults of Aedes aegypti and Aedes albopicus, a cage-in-arm test was carried out as a method for exposure to skin. Namely, on a back of the hand of a rubber glove, a hole with diameter of 5 cm was created, and, onto an exposed back of the testees, various samples prepared by dissolution in 100 μl of ethanol were applied, and then the skin test was carried out. The testees were healthy males between the ages of 21 and 40. The control group was treated with 100 μl of ethanol only. Female adults (5 to 8 day old) of Aedes aegypti or Aedes albopicus (250 to 300 mosquitoes) were added to a cage for growing adult mosquitoes (25×25×25 cm^3), and adapted to the indoor conditions for 12 to 24 hours before starting the test. When the upper arm of the control group is exposed for 1 minute and at least 6 mosquitoes sit on the upper arm or show a bloodsucking behavior, it was determined as sufficient biting pressure, and then the repellency test was carried out. […] The time period between the time point with initial treatment of a material and the time point at which 2 or more mosquitoes continuously sit on the treatment area or show the bloodsucking behavior was defined as complete protection time (CPT). Furthermore, for obtaining the repellency with regard to concentration, exposure was made for a constant time period regardless of the above and the repellency was calculated by using the following formula. Accordingly, the effect was compared among each test samples. All tests were carried out in triplicate. Repellency %=(Number of insects showing bloodsucking behavior in non-treatment group−Number of insects showing bloodsucking behavior in treatment group)/Number of insects showing bloodsucking behavior in non-treatment group)×100 <Tick Repellency>

adult Aedes albopicus = experiment: cage-in-arm test, repellency and CPT; type: in vivo, Aedes albopictus; conditions: for CPT: 4 mg, adult Aedes albopicus
Procedure: For determining the repellency of prepared samples against adults of Aedes aegypti and Aedes albopicus, a cage-in-arm test was carried out as a method for exposure to skin. Namely, on a back of the hand of a rubber glove, a hole with diameter of 5 cm was created, and, onto an exposed back of the testees, various samples prepared by dissolution in 100 μl of ethanol were applied, and then the skin test was carried out. The testees were healthy males between the ages of 21 and 40. The control group was treated with 100 μl of ethanol only. Female adults (5 to 8 day old) of Aedes aegypti or Aedes albopicus (250 to 300 mosquitoes) were added to a cage for growing adult mosquitoes (25×25×25 cm^3), and adapted to the indoor conditions for 12 to 24 hours before starting the test. When the upper arm of the control group is exposed for 1 minute and at least 6 mosquitoes sit on the upper arm or show a bloodsucking behavior, it was determined as sufficient biting pressure, and then the repellency test was carried out. With an interval of 30 minutes, by exposing the upper arm, which has been treated with the above composition, for 3 minutes, and, when the adult mosquito sits on the arm for 2 seconds or longer or at least two mosquitoes showing the behavior of mouth injection to skin or direct bloodsucking are found from consecutive tests, the test was stopped. The time period between the time point with initial treatment of a material and the time point at which 2 or more mosquitoes continuously sit on the treatment area or show the bloodsucking behavior was defined as complete protection time (CPT). Furthermore, for obtaining the repellency with regard to concentration, exposure was made for a constant time period regardless of the above and the repellency was calculated by using the following formula. Accordingly, the effect was compared among each test samples. All tests were carried out in triplicate. Repellency %=(Number of insects showing bloodsucking behavior in non-treatment group−Number of insects showing bloodsucking behavior in treatment group)/Number of insects showing bloodsucking behavior in non-treatment group)×100 <Tick Repellency>
For reference, comparison of the mosquito repellency was made by using clove oil as a natural positive control group and DEET as a synthetic positive control group.
To determine the repellency of plant essential oil alone against adult Aedes albopicus and nymphs of Haemaphysalis longicornis, the cage-in-arm test and finger-tip method were carried out, in the same manner as Examples 1-2 and 1-3, with each of 16 kinds of plant essential oil of Table 4.

Structure (SMILES): COc1cc(CN)ccc1O.Cl [4-hydroxy-3-methoxybenzylamine hydrochloride]
- CPT (adult Aedes aegypti; adult Aedes aegypti): 10 min

Structure (SMILES): CCN(CC)C(=O)c1cccc(C)c1 [DEET, N,N-diethyl-m-toluamide]
- CPT (adult Aedes aegypti; adult Aedes aegypti): 90 min
- CPT (adult Aedes aegypti; adult Aedes aegypti (Table 6)): 90 min
- Repellency (mean ± SE, %) (adult Aedes albopicus; 0.03 mg/cm^2, 10 minutes): 77 ± 5.8%
- Repellency (mean ± SE, %) (adult Aedes albopicus; 0.03 mg/cm^2, 30 minutes): 67 ± 3.3%
- Repellency (mean ± SE, %) (adult Aedes albopicus; 0.03 mg/cm^2, 60 minutes): 69 ± 6.9%
- Repellency (mean ± SE, %) (adult Aedes albopicus; 0.03 mg/cm^2, 90 minutes): 19 ± 5.2%
- Repellency (mean ± SE, %) (adult Aedes albopicus; 0.10 mg/cm^2, 10 minutes): 100 ± 0%
- Repellency (mean ± SE, %) (adult Aedes albopicus; 0.10 mg/cm^2, 30 minutes): 96 ± 2.6%
- Repellency (mean ± SE, %) (adult Aedes albopicus; 0.10 mg/cm^2, 60 minutes): 86 ± 4.2%
- Repellency (mean ± SE, %) (adult Aedes albopicus; 0.10 mg/cm^2, 90 minutes): 83 ± 4.3%
- Repellency (mean ± SE, %) (adult Aedes albopicus; 0.10 mg/cm^2, 120 minutes): 82 ± 9.5%
- Repellency (mean ± SE, %) (adult Aedes albopicus; 0.10 mg/cm^2, 150 minutes): 57 ± 5.2%
- Repellency (mean ± SE, %) (adult Aedes albopicus; 0.10 mg/cm^2, 180 minutes): 27 ± 3.8%
- Repellency (mean ± SE, %) (adult Aedes albopicus; 0.20 mg/cm^2, 10 minutes): 100 ± 0%
- Repellency (mean ± SE, %) (adult Aedes albopicus; 0.20 mg/cm^2, 30 minutes): 100 ± 0%
- Repellency (mean ± SE, %) (adult Aedes albopicus; 0.20 mg/cm^2, 60 minutes): 100 ± 0%
- Repellency (mean ± SE, %) (adult Aedes albopicus; 0.20 mg/cm^2, 90 minutes): 100 ± 0%
- Repellency (mean ± SE, %) (adult Aedes albopicus; 0.20 mg/cm^2, 120 minutes): 95 ± 3.3%
- Repellency (mean ± SE, %) (adult Aedes albopicus; 0.20 mg/cm^2, 150 minutes): 96 ± 1.2%
- Repellency (mean ± SE, %) (adult Aedes albopicus; 0.20 mg/cm^2, 180 minutes): 85 ± 3.0%
- Repellency (mean ± SE, %) (adult Aedes albopicus; 0.25 mg/cm^2, 10 minutes): 100 ± 0%
- Repellency (mean ± SE, %) (adult Aedes albopicus; 0.25 mg/cm^2, 30 minutes): 100 ± 0%
- Repellency (mean ± SE, %) (adult Aedes albopicus; 0.25 mg/cm^2, 60 minutes): 100 ± 0%
- Repellency (mean ± SE, %) (adult Aedes albopicus; 0.25 mg/cm^2, 90 minutes): 100 ± 0%
- Repellency (mean ± SE, %) (adult Aedes albopicus; 0.25 mg/cm^2, 120 minutes): 100 ± 0%
- Repellency (mean ± SE, %) (adult Aedes albopicus; 0.25 mg/cm^2, 150 minutes): 100 ± 0%
- Repellency (mean ± SE, %) (adult Aedes albopicus; 0.25 mg/cm^2, 180 minutes): 84 ± 4.3%
- CPT (adult Aedes albopicus): 90 min

Structure (SMILES): C=CCc1ccc(O)c(OC)c1 [Eugenol (clove), Eugenol]
- CPT (adult Aedes albopicus): 10 min
